In patent publication US10780092B2, “Fused pyrazine derivatives useful as soluble guanylate cyclase stimulators” (Merck Sharp & Dohme Corp., priority 2016, dated 2020):

Key:
[1] = biological target: human recombinant sGC enzyme (Homo sapiens (Human), UniProt Q02108+Q02153); experiment: SEC competition binding assay with [3H] Compound B radioligand; conditions: displacement of 1.6 nM [3H] Compound B, 24 h at 37° C.
Method in brief: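 Recombinant human sGC incubated with 1.6 nM [3H] Compound B and test compounds for 24 h at 37° C. Buffer: 50 mM triethanolamine pH 7.4, 3 mM MgCl2, 0.025% BSA, 2 mM DTT, 300 μM DETA/NO, 400 μM GTP, 1% DMSO. Bound ligand separated by gel filtration and counted by scintillation; non-specific binding with 1 μM Compound B; Ki from one-site fit.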

[2] = biological target: sGC α1/β1 heterodimer (Homo sapiens (Human), UniProt Q02108+Q02153); experiment: Cell-based sGC functional assay (CASA assay), cGMP by HTRF; conditions: CHO-K1/sGC cells; for Emax: CHO-K1, cGMP production as percentage of maximum of compound A (set to 100%), read-out: % Activation; for EC50: inflection point of cGMP production, 4P fit, read-out: IP
Method in brief: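 CHO-K1 cells stably expressing human sGC α1/β1, with 0.5 mM IBMX, pre-incubated ±1 μM DETA-NO 30 min at 25° C, then compound 1 hr at 37° C (2.5% DMSO). cGMP by HTRF; activation as % of reference activator maximum, 4P fit giving inflection point and maximum […].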

SMILES	Ki [1] [nM]	Emax [2] [%]	EC50 [2] [nM]
CCCCc1nc(-c2nc(N)c3c(n2)NC(=O)C3(C)c2ccc(Cl)c(O)c2)cn2ncnc12 (stereo not drawn) [Example 50-A, 4-Amino-2-(8-butyl-[1,2,4]triazolo[1,5-a]pyrazin-6-yl)-5-(4-chloro-3-hydroxyphenyl)-5-methyl-5,7-dihydro-6H-pyrrolo[2,3-d]pyrimidin-6-one]	0.775	175	70
CCCCc1nc(-c2nc(N)c3c(n2)NC(=O)C3(C)c2ccc(Cl)c(O)c2)cn2ccnc12 (stereo not drawn) [Example 52-A, 4-Amino-2-(8-butylimidazo[1,2-a]pyrazin-6-yl)-5-(4-chloro-3-hydroxyphenyl)-5-methyl-5,7-dihydro-6H-pyrrolo[2,3-d]pyrimidin-6-one]	0.864	85	144
CC(C)CCc1nc(-c2nc(N)c3c(n2)NC(=O)C3(C)c2ccc(O)c(F)c2)cn2ccnc12 (stereo not drawn) [Example 54-B, 4-Amino-5-(3-fluoro-4-hydroxyphenyl)-2-(8-isopentylimidazo[1,2-a]pyrazin-6-yl)-5-methyl-5,7-dihydro-6H-pyrrolo[2,3-d]pyrimidin-6-one]	1.08	72	42
CC1(c2ccc(Cl)c(O)c2)C(=O)Nc2nc(-c3cn4ccnc4c(CCCC(F)(F)F)n3)nc(N)c21 (stereo not drawn) [Example 55-A, 4-Amino-5-(4-chloro-3-hydroxyphenyl)-5-methyl-2-(8-(4,4,4-trifluorobutyl)imidazo[1,2-a]pyrazin-6-yl)-5,7-dihydro-6H-pyrrolo[2,3-d]pyrimidin-6-one]	1.21	113	969
CC1(c2cccc(O)c2)C(=O)Nc2nc(-c3cn4ccnc4c(Cc4ccc(Cl)cc4)n3)nc(N)c21 (stereo not drawn) [Example 56-B, 4-Amino-2-{8-[(4-chlorophenyl)methyl]imidazo[1,2-a]pyrazin-6-yl}-5-(3-hydroxyphenyl)-5-methyl-5,7-dihydro-6H-pyrrolo[2,3-d]pyrimidin-6-one]	1.24	101	627
CC(C)CCc1nc(-c2nc(N)c3c(n2)NC(=O)C3(C)c2cc(O)c(Cl)cn2)cn2ccnc12 (stereo not drawn) [Example 57-B, 4-Amino-5-(5-chloro-4-hydroxypyridin-2-yl)-2-(8-isopentylimidazo[1,2-a]pyrazin-6-yl)-5-methyl-5,7-dihydro-6H-pyrrolo[2,3-d]pyrimidin-6-one]	1.24	67	798
CC(C)CCc1nc(-c2nc(N)c3c(n2)NC(=O)C3(C)c2ccc(O)cc2)cn2ccnc12 (stereo not drawn) [Example 58-B, 4-Amino-5-(4-hydroxyphenyl)-2-(8-isopentylimidazo[1,2-a]pyrazin-6-yl)-5-methyl-5,7-dihydro-6H-pyrrolo[2,3-d]pyrimidin-6-one]	1.54	121	164
CC(C)CCc1nc(-c2nc(N)c3c(n2)NC(=O)C3(C)c2cccc(O)c2)cn2ccnc12 (stereo not drawn) [Example 59-B, 4-Amino-5-(3-hydroxyphenyl)-2-(8-isopentylimidazo[1,2-a]pyrazin-6-yl)-5-methyl-5,7-dihydro-6H-pyrrolo[2,3-d]pyrimidin-6-one]	1.72	109	335
CC1(c2ccc(O)c(Cl)c2)C(=O)Nc2nc(-c3cn4ccnc4c(Cc4ccc(F)cc4)n3)nc(N)c21 (stereo not drawn) [Example 60-B, 4-Amino-5-(3-chloro-4-hydroxyphenyl)-2-{8-[(4-fluorophenyl)methyl]imidazo[1,2-a]pyrazin-6-yl]-5-methyl-5,7-dihydro-6H-pyrrolo[2,3-d]pyrimidin-6-one]	1.92	138	4380
CCCCc1nc(-c2nc(N)c3c(n2)NC(=O)C3(C)c2ccc(C(F)(F)F)c(O)c2)cn2ncnc12 (stereo not drawn) [Example 61-B, 4-Amino-2-(8-butyl-[1,2,4]triazolo[1,5-a]pyrazin-6-yl)-5-(3-hydroxy-4-(trifluoromethyl)phenyl)-5-methyl-5,7-dihydro-6H-pyrrolo[2,3-d]pyrimidin-6-one]	2.08	105	121
